Consider 47 molecules from ChEMBL document CHEMBL1201862, “PubChem BioAssay data set” (2004).

Activity calls are given as the source filed them.

The target of data set [1] is Cytochrome P450 2C19 (Homo sapiens, UniProt P33261). The experiment in a line: Cytochrome panel assay with activity outcomes. Panel member name: p450-cyp2c19 Compounds with AC50 equal or less than 10 uM are considered active. The format is functional.
A short description of data set [2]: Trypanosoma cruzi growth suppression in host cells – NIH3T3 host cells, beta-gal luminescence, confirmation (AID 2044).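 Further: intracellular parasites grown in NIH/3T3 mouse fibroblasts as host cells; luminescent beta-galactosidase reporter signal from transgenic T. cruzi replicating inside host cells; inhibitors lower the luminescence signal.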 The format is functional, cell-based.
The nature of data set [3]: NIH3T3 cell viability loss – ATP luminescence, mouse fibroblasts, counter-screen, dose response (AID 2010).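 Further: cells exposed to compound for about 90 hours before reading.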 The format is functional, cell-based.
Data set [4] concerns the target Cytochrome P450 3A4 (Homo sapiens, UniProt P08684).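 Further: CYP3A4 tested as one member of a cytochrome P450 panel screen.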
The nature of data set [5]: Luminescence Cell-Based Dose Retest to Confirm Inhibitors of Cancer Stem Cells. [Related pubchem assays (depositor defined):AID2717, AID2721]. To be noted: Homo sapiens. The format is functional.
Data set [6] deals with T1, Rac GTPase-activating protein 1 (Homo sapiens, UniProt Q9H0H5).
T1 sequence (Q9H0H5 whole entry): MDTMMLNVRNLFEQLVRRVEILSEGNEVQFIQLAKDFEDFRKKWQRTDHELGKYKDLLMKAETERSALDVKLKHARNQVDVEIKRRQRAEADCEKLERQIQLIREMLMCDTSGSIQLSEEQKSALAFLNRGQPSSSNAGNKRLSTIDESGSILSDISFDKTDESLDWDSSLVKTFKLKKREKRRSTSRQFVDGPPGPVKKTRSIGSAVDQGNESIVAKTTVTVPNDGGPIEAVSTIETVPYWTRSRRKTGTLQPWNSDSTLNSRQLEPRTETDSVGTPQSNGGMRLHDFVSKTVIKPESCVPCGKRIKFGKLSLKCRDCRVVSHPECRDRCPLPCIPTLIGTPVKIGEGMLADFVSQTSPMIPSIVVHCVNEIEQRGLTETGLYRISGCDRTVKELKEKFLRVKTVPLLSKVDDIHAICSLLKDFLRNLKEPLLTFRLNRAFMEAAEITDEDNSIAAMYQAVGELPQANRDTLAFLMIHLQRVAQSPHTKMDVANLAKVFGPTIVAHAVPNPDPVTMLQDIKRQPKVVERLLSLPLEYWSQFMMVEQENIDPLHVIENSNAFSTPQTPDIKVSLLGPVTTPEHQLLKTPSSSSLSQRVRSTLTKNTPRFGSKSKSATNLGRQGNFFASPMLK
The experiment in a line: blockers of MgcRacGAP-driven Rac1 GTP hydrolysis – biochemical, ADP Hunter fluorescence, primary and confirmatory, confirmation (AID 624330). The format is functional.

The target in data set [7] is T2, Protein RecA (Mycobacterium tuberculosis, UniProt P9WHJ3).
T2 sequence (P9WHJ3 whole entry): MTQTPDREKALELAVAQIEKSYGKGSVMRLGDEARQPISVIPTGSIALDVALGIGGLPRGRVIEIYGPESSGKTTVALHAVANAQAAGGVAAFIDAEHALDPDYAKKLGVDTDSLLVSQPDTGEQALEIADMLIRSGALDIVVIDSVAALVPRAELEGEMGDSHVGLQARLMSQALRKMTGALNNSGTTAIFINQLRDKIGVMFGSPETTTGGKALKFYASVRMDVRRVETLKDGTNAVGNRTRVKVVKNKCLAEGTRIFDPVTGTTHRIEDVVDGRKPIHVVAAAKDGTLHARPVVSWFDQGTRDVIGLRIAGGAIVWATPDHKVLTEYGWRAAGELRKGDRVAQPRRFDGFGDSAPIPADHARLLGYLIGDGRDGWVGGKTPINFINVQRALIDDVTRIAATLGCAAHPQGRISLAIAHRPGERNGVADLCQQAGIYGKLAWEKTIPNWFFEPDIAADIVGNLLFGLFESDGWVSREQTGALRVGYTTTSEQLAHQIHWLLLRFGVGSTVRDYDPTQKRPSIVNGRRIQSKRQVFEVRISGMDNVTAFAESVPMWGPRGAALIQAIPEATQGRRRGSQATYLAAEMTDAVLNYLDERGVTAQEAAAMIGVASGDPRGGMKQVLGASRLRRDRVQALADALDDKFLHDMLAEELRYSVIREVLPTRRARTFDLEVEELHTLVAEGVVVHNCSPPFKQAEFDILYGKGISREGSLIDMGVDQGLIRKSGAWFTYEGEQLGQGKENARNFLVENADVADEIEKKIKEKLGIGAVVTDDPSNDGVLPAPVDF
Briefly: Fluorescence Cell-Free Homogeneous Dose Retest to Identify Inhibitors of RecA-Intein Splicing Activity. [Related pubchem assays (depositor defined):AID2097, AID2223, AID489010, AID492950]. The class given is functional.

Data set [8] concerns H4. Briefly: Luminescence Cell-Based Dose Response HTS to Identify Activators of 5'UTR Stem-Loop Driven Prion Protein mRNA Translation in H4 Neuroglioblastoma Cells. [Related pubchem assays: 1829 (Project Summary), 1814 (Primary HTS)]. The class given is functional. The note with it: Homo sapiens.
Data set [9] relates to Streptococcus sp. 'group A'. Briefly: Streptococcus pyogenes SK(-)GAS viability under kanamycin – luminescence, BacTiterGlo, confirmation, counter-screen for streptokinase expression inhibitor project, dose response (AID 1900). The format is functional, organism-based. (In general: Counterscreens check selectivity or assay interference.)
For data set [10], the system named is Streptococcus. Briefly: GAS UMAA2166 growth inhibition – luminescence, BacTiterGlo, counter-screen for streptokinase expression inhibitor project, dose response (AID 1915).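 Further: potency for reduction of bacterial viability or growth.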 The class given is functional, organism-based.

Sequence of Cytochrome P450 2C19 (P33261 whole entry): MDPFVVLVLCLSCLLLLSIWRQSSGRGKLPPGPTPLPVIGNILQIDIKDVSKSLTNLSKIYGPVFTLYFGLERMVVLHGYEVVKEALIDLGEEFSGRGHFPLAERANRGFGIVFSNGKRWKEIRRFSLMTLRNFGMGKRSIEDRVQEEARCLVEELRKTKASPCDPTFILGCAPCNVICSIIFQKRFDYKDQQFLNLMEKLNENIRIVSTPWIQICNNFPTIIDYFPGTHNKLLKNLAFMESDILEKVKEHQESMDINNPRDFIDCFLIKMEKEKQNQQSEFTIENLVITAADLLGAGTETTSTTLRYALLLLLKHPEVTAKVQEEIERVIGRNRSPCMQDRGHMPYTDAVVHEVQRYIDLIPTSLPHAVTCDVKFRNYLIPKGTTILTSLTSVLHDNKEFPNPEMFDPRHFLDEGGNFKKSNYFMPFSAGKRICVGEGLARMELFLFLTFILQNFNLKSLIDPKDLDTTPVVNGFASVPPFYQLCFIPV
Sequence of Cytochrome P450 3A4 (P08684 whole entry): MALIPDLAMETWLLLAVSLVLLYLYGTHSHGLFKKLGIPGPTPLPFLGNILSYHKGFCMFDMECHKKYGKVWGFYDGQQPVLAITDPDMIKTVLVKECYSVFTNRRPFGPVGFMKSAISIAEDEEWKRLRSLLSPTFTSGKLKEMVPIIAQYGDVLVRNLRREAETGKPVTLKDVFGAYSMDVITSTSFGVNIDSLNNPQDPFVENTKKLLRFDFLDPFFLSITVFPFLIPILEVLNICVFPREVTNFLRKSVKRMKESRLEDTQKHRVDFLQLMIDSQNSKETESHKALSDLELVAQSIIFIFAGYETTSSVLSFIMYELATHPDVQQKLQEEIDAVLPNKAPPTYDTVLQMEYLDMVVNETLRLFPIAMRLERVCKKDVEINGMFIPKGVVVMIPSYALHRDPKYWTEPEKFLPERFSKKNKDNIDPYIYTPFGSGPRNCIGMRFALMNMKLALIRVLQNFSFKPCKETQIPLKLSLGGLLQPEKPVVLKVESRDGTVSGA

On to `COCCNC(=O)C1CCN(S(=O)(=O)N2CCC3(CC2)OCCO3)CC1`, for which the AC50 (commonly the midpoint of the concentration-response curve, whichever way the signal moves) in [1] (read-out: AC50) was 15.8 µM (inconclusive).
On to `O=C(CN1CCN(S(=O)(=O)c2ccc(Br)cc2)CC1)Nc1ccccc1C(=O)c1ccccc1`, for which the figures for the EC50 in data set [2] and in data set [3] were 1.08 µM (active) and > 60 µM (not active), respectively.
On to `CCOC(=O)C1C(=O)C=C(c2ccc(NS(C)(=O)=O)cc2)CC1c1ccco1` (stereo not drawn), for which the AC50 in data set [4] was 25.1 µM (inconclusive).
Consider `CC(C)c1ccc(/C=C/C(=O)NC2=NCCS2)cc1`, for which the half-maximal activity concentration (AC50) in data set [5] is 1.99 µM (active).
Take `COc1ccccc1CN1CCCC2(CCN(C(=O)c3csnn3)CC2)C1`: the AC50 in data set [4] is 15.8 µM (inconclusive).
For `Nc1ccc2[nH]cc(CCC(=O)O)c2c1`, in data set [1], the AC50 result is “inconclusive”.
On to `COc1cccc(Nc2ncc3nc(-c4cc(F)cc(F)c4)c(=O)n(C[C@H]4CCCO4)c3n2)c1`, for which the AC50 in data set [4] is 6.31 µM (inconclusive).
On to `Cc1cccc(-c2nc(C#N)c(NC3CCCCC3)o2)c1`, for which the half-maximal activity concentration (AC50) in [5] is 2.45 µM (active).
Regarding `COc1cc(N=Nc2ccc(C)cc2S(N)(=O)=O)c(C)cc1N`, in [6], the IC50 (commonly the concentration that inhibits the measured activity by half) was 76.2 µM (active).
Same read-out and setting: for `c1ccc(OCCCN2CCCC2)cc1` the value was 159 µM (active).
On to `COc1ccccc1N=C(S)NNC(=O)c1c(Cl)c(C)nn1C`, for which the AC50 entry in data set [1] is recorded as “inconclusive”.
With `COc1ccc(NC2CCCN(C(=O)CCc3scnc3C)C2)cc1` (stereo not drawn), the IC50 in data set [6] was 96.1 µM (active).
Still for that read-out and setting: for `COc1cc(OC)cc(C(=O)N2CCN(Cc3ccc4c(c3)OCO4)CC2)c1` the value was 188 µM (active).
For the molecule `O=C(CNCCO)N1CCc2ccccc21`, the AC50 in [4] was 1.41 µM (inconclusive).
`Oc1ccc(/C=C/c2nc3ccccc3nc2O)cc1`: the IC50 in [6] was 31.5 µM (active).
On to `O/N=C/c1ccnc(SCc2ccc(Cl)cc2)n1`, for which the AC50 in data set [5] was 3.58 µM (active).
Turning to `Cc1sc(-n2c(C)cc(/C=C3\SC(=S)NC3=O)c2C)c(C#N)c1C`, the AC50 in [5] is 2.5 µM (active).
With `C=C1C/C(=C\C)C(=O)O[C@@H]2CCN3CC=C(COC(=O)[C@@]1(C)O)[C@H]23`, the figures for the AC50 entry in data set [1] and in data set [4] were “inconclusive” and 12.6 µM (inconclusive), respectively.
Regarding `Cc1cnc(CNc2ccnc(-c3ccccc3C)n2)cn1`, the AC50 in data set [4] was 20 µM (inconclusive).
With `CCOc1ccc2c(c1)-c1c(ssc1=S)C(C)(C)N2`, the EC50 (usually the concentration giving half of the maximal effect) in data set [7] is 3.17 µM (active).
Turning to `COc1ccc(CNc2ncc(-c3ccccc3)n2C)c(OC)c1OC`, the IC50 in data set [6] was 65.7 µM (active).
Turning to `Cc1ccc(/C=N/Nc2cc(C)nc(NCc3ccccc3)n2)cc1`, the AC50 in [5] is 6.45 µM (active).
On the same count and under the same terms, for `COc1cc(CNC(C)c2ccccc2)cc(Br)c1OCc1ccccc1` (stereo not drawn) the value was 5.92 µM (active).
As for `N#CC1=C(Nc2ccccc2Cl)SC(c2ccccc2O)NC1=O` (stereo not drawn), in [6], the IC50 is 129 µM (active).
Regarding `CCCn1c(C)cc(C(=O)COc2ncnc3sccc23)c1C`, the EC50 in [8] was > 120 µM (not active).
With `CCn1cc(C(=O)O)c(=O)c2cc(F)c(N3CCN(S(=O)(=O)c4ccc(NC(C)=O)cc4)CC3)cc21`, the EC50 is 5.05 µM (active) in [9] and 7.08 µM (active) in data set [10].
For the molecule `COc1ccc(CCNC(=O)CN(c2ccccc2OC)S(=O)(=O)c2ccc(C)cc2)cc1`, the concentration giving a half-maximal response (EC50) in [2] was 4.73 µM (active); in data set [3], 19.3 µM (active).
On to `Cc1c(-c2ccccc2)sc(N)c1C(=O)N1CCOCC1`, for which, in data set [6], the IC50 is 41.5 µM (active).
`CC(=O)NCCNc1ccnc(-c2ccccc2C)n1`: the half-maximal activity concentration (AC50) in [4] was 20 µM (inconclusive).
Turning to `COc1cc(CCN2C(=O)c3cccc4cccc(c34)C2=O)c(S(=O)(=O)N2CCCCCC2)cc1OC`, the concentration for a half-maximal effect (EC50) in data set [2] was 1.9 µM (active); in [3], > 30 µM (not active).
For `COCCCN=C(S)NC1CC2CCCC(C1)N2Cc1cccs1` (stereo not drawn), in data set [1] (read-out: AC50), the AC50 is 1.26 µM (inconclusive).
In the case of `C=CCN1C(=O)C(CC(=O)Nc2ccc(OCCC)cc2)N(CCCN2CCN(Cc3ccccc3)CC2)C1=S` (stereo not drawn), the concentration giving a half-maximal response (EC50) in data set [2] is 3.01 µM (active); in data set [3], > 60 µM (not active).
As for `O=C(NC1CONC1=O)OCC(Cl)(Cl)Cl` (stereo not drawn), in data set [5], the AC50 is > 195 µM (inactive).
For the molecule `CCCSc1nc2sc3c(c2c(=O)n1-c1ccc(OC)cc1)CCN(C)C3`, the EC50 in [2] was 0.12 µM (active); in [3], > 30 µM (not active).
Regarding `CCCCc1ccc(NC(=O)CSc2nc(=O)n(CCN(CC)CC)c3c2CCC3)cc1`, in [5], the AC50 was 11.2 µM (active).
Take `Cc1ccc(C)c(S(=O)(=O)N2CCN(C(=O)CCCc3c[nH]c4ccccc34)CC2)c1`: the EC50 was 4.01 µM (active) in [2] and > 60 µM (not active) in data set [3].
For the molecule `O=C(O)c1ccccc1C(=O)Nc1ccc(Nc2ccccc2)cc1`, the IC50 in data set [6] was 55.5 µM (active).
For `CO[C@@]12C[C@@H](COC(=O)c3cncc(Br)c3)CN(C)[C@H]1Cc1cn(C)c3cccc2c13`, in [1] (read-out: AC50), the concentration at half-maximal activity (AC50) was 7.94 µM (inconclusive).
`COc1ccc(/C=C2\SC(=S)N(CCC(=O)N(CCO)Cc3ccccc3)C2=O)cc1OC`: the results for the 50% effective concentration (EC50) in data set [2] and in [3] were 3.32 µM (active) and > 60 µM (not active), respectively.
On to `Sc1nnc2sc3ccccc3n12`, for which the IC50 in data set [6] is 35.8 µM (active).
For `O=C(c1cc(-c2ccncc2)nc2ccc(Br)cc12)N1CCN(Cc2ccc3c(c2)OCO3)CC1`, the EC50 in data set [2] was 0.384 µM (active); in [3], 54.9 µM (active).
Consider `O=C(C1=C(O)C(=O)N(c2cccc(Cl)c2)C1c1ccccc1[N+](=O)[O-])c1ccccc1` (stereo not drawn), for which the AC50 in [4] was 12.6 µM (inconclusive).
On to `Cc1cccc(NC(=O)Nc2ccc3c(c2)OCO3)n1`, for which, in data set [8], the EC50 was 9.72 µM (active).
Regarding `O=C(Nc1ccccc1)c1ccc(N2CCN(c3ccccc3)CC2)c(S(=O)(=O)N2CCOCC2)c1`, the EC50 in [2] was 2.04 µM (active); in data set [3], > 60 µM (not active).
With `O=C(CN(Cc1ccccc1Cl)C(=O)c1ccc(CN2CCOCC2)o1)NCC1CCCO1` (stereo not drawn), in data set [1] (read-out: AC50), the AC50 was 10 µM (inconclusive).
Consider `CC[C@@H]1OC(=O)[C@H](C)[C@H](O[C@@H]2C[C@](C)(OC)[C@H](O)[C@H](C)O2)[C@H](C)[C@H](O[C@@H]2O[C@@H](C)C[C@@H](N(C)C)[C@@H]2O)[C@](C)(O)C[C@H](C)C(=O)[C@H](C)[C@H](O)[C@]1(C)O`, for which the AC50 in data set [4] is 12.6 µM (inconclusive).
With `Oc1ccccc1/C=N/NP(=S)(c1ccccc1)c1ccccc1`, the AC50 in data set [5] was 2.69 µM (active).
